Measurements reported in ChEMBL document CHEMBL4251546, “Discovery and hit-to-lead evaluation of piperazine amides as selective, state-dependent NaV1.7 inhibitors” (Medchemcomm, 2017).
In brackets after ≈: the same amount, converted by molar mass.

Experiments:
[1] = Thermodynamic solubility of the compound in PBS at pH 7.4; assay type: physicochemical; settings: read-out: Therm_solubility
[2] = system: MDR1 (P-gp); assay: Apparent permeability across MDCK cells transfected with MDR1; assay type: ADME, cell-based, Canis lupus familiaris; settings: dog
[3] = Cmax in mouse at 100 mg/kg, po; assay type: ADME, organism-based; set-up: dose 100 mg/kg, route oral; settings: in vivo
[4] = system: Mus musculus; assay: Unbound Cmax in mouse at 100 mg/kg, po; assay type: ADME, organism-based; settings: in vivo
[5] = Plasma concentration in C57Bl/6 mouse histamine dichloride-induced pruritus model at 300 mg/kg, po; assay type: ADME, organism-based; settings: in vivo

SMILES	solubility thermodynamic [1] [µM]	further results
COc1cc([C@H](C(=O)NCc2ccccc2)N2CCN(C(=O)c3cc(F)cc(F)c3)CC2)ccc1C#N	30 (≈ 15.1 µg/mL)	–
N#Cc1ccc([C@H](C(=O)Nc2ccc(OCC(F)(F)F)nc2)N2CCN(C(=O)c3cc(F)cc(F)c3)CC2)cc1	15 (≈ 8.39 µg/mL)	–
O=C(NCC1CC1)[C@@H](c1ccccc1)N1CCN(C(=O)c2cc(F)cc(F)c2)CC1	472 (≈ 195 µg/mL)	–
N#Cc1cc(OC(F)(F)F)cc(C(=O)N2CCN([C@@H](C(=O)NCc3ccccc3)c3ccccc3)CC2)c1	44 (≈ 23 µg/mL)	–
O=C(NCc1ccccc1)[C@@H](c1ccccc1)N1CC2CCC(C1)N2C(=O)c1cc(F)ccc1Cl	35 (≈ 17.2 µg/mL)	–
O=C(NCc1ccccc1)[C@@H](c1ccccc1)N1CCN(Cc2ccccc2)CC1	19 (≈ 7.59 µg/mL)	Papp [2]: 24 ×10⁻⁶ cm/s
O=C(NCc1ccccc1)[C@@H](c1ccccc1)N1CCN(C(=O)c2cc(F)ccc2Cl)CC1	96 (≈ 44.7 µg/mL)	Cmax [3]: 4.3 µM; fCmax [4]: 0.16 µM; Papp [2]: 36 ×10⁻⁶ cm/s; concentration [5]: 22 µM
CN(Cc1ccccc1)C(=O)[C@@H](c1ccccc1)N1CCN(C(=O)c2cc(F)cc(F)c2)CC1	220 (≈ 102 µg/mL)	–
N#Cc1cc(F)cc(C(=O)N2CCN([C@@H](C(=O)NCC(F)(F)C3CC3)c3ccccc3)CC2)c1	405 (≈ 191 µg/mL)	Cmax [3]: 12.8 µM; fCmax [4]: 1.66 µM
N#Cc1ccc([C@H](C(=O)NCC2CC2)N2CC3CCC(C2)N3C(=O)c2cc(F)cc(F)c2)cc1	322 (≈ 150 µg/mL)	–
O=C(NCc1ccccc1)[C@@H](c1ccccc1)N1CC2CC(C1)N2C(=O)c1cc(F)ccc1Cl	83 (≈ 39.7 µg/mL)	–
N#Cc1ccc([C@H](C(=O)NCC2CC2)N2CC3CCC(C2)N3C(=O)c2cc(F)ccc2F)cc1	326 (≈ 151 µg/mL)	–
N#Cc1ccc([C@H](C(=O)NCc2ccccc2)N2CCN(C(=O)c3cc(F)cc(F)c3)CC2)cc1	74 (≈ 35.1 µg/mL)	–
N#Cc1ccc([C@H](C(=O)NCC(F)(F)C2CC2)N2CCN(C(=O)c3cc(F)ccc3Cl)CC2)cc1	154 (≈ 77.8 µg/mL)	Cmax [3]: 29.8 µM; fCmax [4]: 3.28 µM
O=C(NCc1ccccc1)[C@@H](c1ccccc1)N1CCN(C(=O)c2cc(F)cnc2Cl)CC1	454 (≈ 212 µg/mL)	–
O=C(Nc1ccc(OCC(F)(F)F)nc1)[C@@H](c1ccccc1)N1CCN(C(=O)c2cc(F)cc(F)c2)CC1	19 (≈ 10.2 µg/mL)	–
O=C(Nc1ccc(OCC(F)(F)F)nc1)[C@@H](c1ccccc1)N1CCN(C(=O)c2cc(F)cnc2Cl)CC1	49 (≈ 27 µg/mL)	–
O=C(NCc1ccc(C(F)(F)F)nc1)[C@@H](c1ccccc1)N1CCN(C(=O)c2cc(F)cc(F)c2)CC1	225 (≈ 117 µg/mL)	–
O=C(NCC(F)(F)C1CC1)[C@@H](c1ccccc1)N1CCN(C(=O)c2cc(F)cc(F)c2)CC1	346 (≈ 160 µg/mL)	–
N#Cc1cc(F)cc(C(=O)N2CCN([C@@H](C(=O)NCc3ccccc3)c3ccccc3)CC2)c1	248 (≈ 113 µg/mL)	–
O=C(NCc1ccccc1)[C@@H](c1ccccc1)N1CCN(C(=O)c2cc(F)cc(F)c2)CC1	137 (≈ 61.6 µg/mL)	–
